{"source": "patent US9364448B2", "about": "“Nitisinone for treatment of oculocutaneous/ocular albinism and for increasing pigmentation” (The United States of America, as represented by the …, priority 2010, dated 2016)", "key": {"[1]": {"molecular_target": "T1, R77L mouse tyrosinase (Mus musculus, UniProt P11344, R77L)", "T1 construct": "expressed in transfected cells; host or cells: CHO cells, pcDNA3.1", "T1 sequence (P11344 19-533 R77L)": "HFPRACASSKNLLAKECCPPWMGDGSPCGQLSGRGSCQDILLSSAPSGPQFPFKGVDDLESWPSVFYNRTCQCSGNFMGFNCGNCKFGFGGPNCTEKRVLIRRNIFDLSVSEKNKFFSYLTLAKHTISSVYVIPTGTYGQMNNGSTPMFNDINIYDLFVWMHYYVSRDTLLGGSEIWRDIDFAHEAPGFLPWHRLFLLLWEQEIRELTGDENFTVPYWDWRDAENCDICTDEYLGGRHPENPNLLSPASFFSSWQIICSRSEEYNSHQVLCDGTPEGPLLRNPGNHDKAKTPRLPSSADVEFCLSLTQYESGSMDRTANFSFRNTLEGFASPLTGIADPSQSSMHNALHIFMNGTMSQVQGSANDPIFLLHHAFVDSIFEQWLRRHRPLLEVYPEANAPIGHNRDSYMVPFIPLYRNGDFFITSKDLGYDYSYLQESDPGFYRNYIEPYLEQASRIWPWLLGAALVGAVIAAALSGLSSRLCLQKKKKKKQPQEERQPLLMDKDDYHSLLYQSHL", "test": "Tyrosinase protein stability in CHO cells with cycloheximide, R77L", "format": "cell-based", "settings": "1 mM tyrosine", "experimental": "In Vitro Expression and Enzyme Activity. The expression construct of mouse Tyr was a kind gift of Dr. C. Olivares from the School of Medicine of the University of Murcia (Spain). This construct was prepared in the pcDNA3.1 expression vector (Invitrogen, Carlsbad, Calif.) using EcoRI/XbaI restriction sites and based on the mouse Tyr clone obtained as described previously in C. Olivares, et al., Biochem. J., 354:131 (2001). Constructs of tyrosinase gene mutant variants, with changes corresponding to missense mutations R77L and H420R in the mouse tyrosinase protein sequence, were created using standard methodologies (Mutagenex Inc., Piscataway, N.J.). […]\nChinese hamster ovary cells (CHO) (generous gift from Dr. J. T. Wroblewski from the Pharmacology Department, Georgetown University Medical Center, Washington D.C.) were grown at a temperature of about 37° C. in DMEM media, in the presence of 10% fetal bovine serum, 1% penicillin and 4.5 g […] per 0.5 liter of media. […] The total protein content in protein lysates was determined spectrophotometrically as a 280/260 ratio. Protein expression was analyzed by Western blotting, and GAPDH was used as an internal loading control. For the analysis, Western blots were scanned, intensities of protein bands were determined, and ratios of band intensities for the wild type or mutant variants, to that of GAPDH were calculated. […]"}, "[2]": {"molecular_target": "T2, H420R mutant tyrosinase in Melan-c cells (Mus musculus, UniProt P11344, H420R)", "T2 construct": "expressed in transfected cells; host or cells: Melan-c cells (albino mouse melanocytes), Fugene HD transfection", "T2 sequence (P11344 19-533 H420R)": "T1 sequence (P11344 19-533 R77L) with L59R, H402R", "test": "Tyrosinase enzyme activity in transfected Melan-c cells, H420R", "format": "cell-based", "settings": "1 mM tyrosine; Melan-c cells expressing H420R; p=0.03", "experimental": "Melan-c cell cultures. Melan-c cells (melanocytes derived from mice homozygous for the albino mutation (D. C. Bennett et al., Development, 105:379 (1989)) were cultured in RPMI 1640, pH 6.9 supplemented with 5% fetal bovine serum (FBS), streptomycin-penicillin (100 μg/ml each), 200 nM tetradeconyl phorbol acetate (TPA), and 100 μM β-mercaptoethanol, at 37° C. in 10% CO2. Cells were transfected using Fugene HD reagent according to the manufacturer's instructions (Roche Diagnostics Inc., Indianapolis, Ind.) in presence or absence of 1 mM tyrosine. After 24 hours, cells were washed twice with saline phosphate buffer, harvested in 10 mM sodium phosphate, pH 6.8, containing 1% Igepal CA-630 and protease inhibitor (Roche), and microcentrifuged for 30 minutes at 13,200×g, at a temperature of about 4° C. to obtain a protein lysate.\nDiphenol oxidase activity of tyrosinase was determined spectrophotometrically according to Slominski et al., J. Invest. Dermatol., 96:172 (1991), with minor modifications. Briefly, the reaction mixtures contained 7 mM L-dopa in 0.1 M sodium phosphate buffer (pH 6.8) and protein lysate (20 mg/ml) was incubated at 37° C. and monitored by measuring the absorbance at 475 nm. All experiments were conducted in triplicate. […]"}}, "note": "Numbering of substitutions follows the chain as printed."}
{"compound": "N[C@@H](Cc1ccc(O)cc1)C(=O)O", "note": "[tyrosine]", "values": [{"measurement": "Stabilization of R77L mutant tyrosinase protein relative to GAPDH", "setting": "[1]", "result": "not statistically significant"}, {"measurement": "Tyrosinase enzyme activity over baseline", "setting": "[2]", "result": "increased enzyme activity over baseline"}]}
